The text below walks through data of publication PMC9965165, “3D-Printing of Capsule Devices as Compartmentalization Tools for Supported Reagents in the Search of Antiproliferative Isatins” (Pharmaceuticals, 2023).

Data set [1] concerns murine 3T3 Balb fibroblast cells. The experiment in a line: CCK8 antiproliferation / cytotoxicity assay in 3T3 Balb fibroblasts. Type of data set: cell-based. As to conditions: CCK-8 assay, murine fibroblast 3T3 Balb cells. On the procedure: (§1) The cytotoxic activity of these new synthesized isatin derivatives was evaluated by means of the CCK8 antiproliferation assay in vitro in two different cell lines: cancerous cervical HeLa and murine 3T3 Balb fibroblast cells. The latter cell line is typically used to analyze the potential toxicity of (nano)materials thanks to their sensitivity. […] It can be observed that fibroblast cells were more sensitive to the presence of isatin derivatives than the cancerous cells in general HeLa ones, probably related to the enhanced replication rate of the tumoral cells. Analysis of the experimental data shown in Figure 6 allowed the determination of IC50 values (see Table 3 and Table 4). […] [65, 66] Compounds 26 and 33 are, therefore, new promising hits for further development.
(§2) Cervical HeLa cancer cells and 3T3 mouse fibroblasts from Cell Biolabs (San Diego, CA, USA) were grown in standard culture conditions (5% CO2 at 37 °C) in DMEM supplemented with 10% (v/v) FBS, 2 mM L-glutamine, 1% (v/v) penicillin/streptomycin, 1 mM sodium pyruvate, and 0.1 mM MEM nonessential amino acids (NEAA).
(§3) Cytotoxicity of the synthesized isatin-based compounds was tested in vitro by means of the CCK-8 cytotoxicity assay. Cancerous cervical HeLa and 3T3 Balb fibroblasts cells were seeded into 96-well plates (1.0 × 10^4 cells/well) and grown for 24 h at an optical confluence of 80–90% under standard culture conditions in 100 μL growth medium. Bare cells were used as the negative control. After 24 h of incubation at 37 °C, 100 μL of NPs at 2.5 × 10^10 NP/mL in the corresponding cell culture medium were injected into the wells and incubated for 24 h and 48 h. After incubation, the culture medium was discarded, cells were washed with 10 mM PBS (pH 7.4) several times, and fresh culture medium (100 μL) containing 10 μL of CCK-8 reagent added to each well. After 2 h, the absorption at 450 nm of cell samples was measured with an UV-vis microplate absorbance reader (Bio-Rad model 689, USA). Cell viability (SR, survival rate) was calculated as follows: SR=Abssample/Absblank×100 where Abssample is the absorbance at 450 nm for cell samples, and Absblank is the absorbance corresponding to the sample controls without the particles.
(§4) For the determination of the half-maximal inhibitory concentration (IC50), a dose–response curve between the isatin derivatives’ concentrations and percent cell viability was plotted and fitted by means of a nonlinear least-squares fitting method (Microcal Origin 2021) to a four-parameter logistic equation: Y=min+((max−min)/1+10^((logIC50−X)×p)) where the original, %control or %survival data are represented by Y along their minimal (min) and maximal (max) values; the isatin derivative concentration is represented by X; IC50 is the concentration at 50% maximal value; and p is the slope factor.
On the technique in general: Formazan colour is commonly taken as a measure of viable cells.

The subject of data set [2] is cancerous cervical HeLa cells. Briefly: CCK8 antiproliferation / cytotoxicity assay in HeLa cells. As to conditions: for specificity for tumoral cells: HeLa versus 3T3 Balb fibroblasts; for IC50: CCK-8 assay, human cervical cancer HeLa cells. The format is cell-based, human. On the procedure: as §1, §2, §3, §4
A further data set deals with HBL-100 cell line. Also on record: method as in doi:10.1002/ajoc.202100684. As to conditions: HBL-100 line; cited from earlier work.
In a further data set the test system is HeLa cell line. Also on record: method as in doi:10.1002/ajoc.202100684. As to conditions: cited from earlier work.
For a further data set, the system named is cervical tumors. Particulars: cited from earlier work.
[3] abbreviates: Pt-based chemodrug, first line treatment of primary cervical tumors.
Setting [4] is: drugs used for recurrent and metastatic cervical cancer.

Read-outs that look alike come from different tables or passages of the source.

One may read the IC50 as the concentration that gives 50% inhibition. Usually melting point stands for the temperature of the solid-liquid transition. The compound `CCCCN(C(=O)CCl)C1(C(=O)NC(C)(C)C)C(=O)Nc2ccc(I)cc21` (stereo not drawn) [Compound 12, N-(tert-butyl)-3-(N-butyl-2-chloroacetamido)-5-iodo-2-oxoindoline-3-carboxamide] showed a melting point of 108.5 to 109.7 °C. Also, in data set [1] (Mus musculus), the IC50 came to 1.3 ± 0.2 µM. The “specificity for tumoral cells” value in data set [2] is listed as “not showing fully specific toxic activity for cancerous cells”. The same compound gave a concentration for half-maximal inhibition (IC50) in data set [2] (Homo sapiens, HeLa) of 8.3 ± 0.8 µM. Besides, in the data set with HBL-100 cell line, the antiproliferative activity result was “potent antiproliferative activity”. Moreover, in the data set with HeLa cell line, the antiproliferative activity entry is “potent antiproliferative activity”.
`CCCCN(C(=O)CCl)C1(C(=O)NC(C)(C)C)C(=O)Nc2ccc([N+](=O)[O-])cc21` (stereo not drawn) [Compound 13, N-(tert-butyl)-3-(N-butyl-2-chloroacetamido)-5-nitro-2-oxoindoline-3-carboxamide]: the melting point was in the range of 179.5 to 179.8 °C. For the same compound, 4.8 ± 0.9 µM corresponded to half-maximal inhibition in data set [1] (Mus musculus) (IC50). This compound yielded an IC50 in data set [2] (Homo sapiens, HeLa) of 26.9 ± 1 µM.
With `CCCCN(C(=O)CCl)C1(C(=O)NC(C)(C)C)C(=O)Nc2c(Cl)cc(Cl)cc21` (stereo not drawn) [Compound 14, N-(tert-butyl)-3-(N-butyl-2-chloroacetamido)-5,7-dichloro-2-oxoindoline-3-carboxamide], the melting point was 125 to 126 °C. For the same compound, the IC50 in data set [1] (Mus musculus) was 1.5 ± 0.3 µM. For the same compound, the IC50 in data set [2] (Homo sapiens, HeLa) was determined as 14.1 ± 0.3 µM.
For the compound `CCCCN(C(=O)C(F)(F)F)C1(C(=O)NC2CCCCC2)C(=O)Nc2ccc(Br)cc21` (stereo not drawn) [Compound 15, 5-bromo-3-(N-butyl-2,2,2-trifluoroacetamido)-N-cyclohexyl-2-oxoindoline-3-carboxamide], the melting point was 209 to 210 °C. The same compound returned an IC50 in data set [1] (Mus musculus) of 28.3 ± 1.7 µM. The same compound returned an IC50 in data set [2] (Homo sapiens, HeLa) of 47.7 ± 1.2 µM.
Compound `CCCCN(C(=O)CCl)C1(C(=O)NC(C)(C)C)C(=O)Nc2ccc(Br)cc21` (stereo not drawn) [Compound 16, 5-Bromo-N-(tert-butyl)-3-(N-butyl-2-chloroacetamido)-2-oxoindoline-3-carboxamide] had a melting point of 180 to 182 °C. Besides, in data set [1] (Mus musculus), half-maximal inhibition (IC50) required 1.5 ± 0.8 µM. This compound also displayed an IC50 in data set [2] (Homo sapiens, HeLa) of 17.9 ± 1.3 µM.
As to `CCCCN(C(=O)C(F)(F)F)C1(C(=O)NC(C)(C)C)C(=O)Nc2ccc(I)cc21` (stereo not drawn) [Compound 17, N-(tert-butyl)-3-(N-butyl-2,2,2-trifluoroacetamido)-5-iodo-2-oxoindoline-3-carboxamide], the melting point is 204 to 205 °C. The compound further registered an IC50 in data set [1] (Mus musculus) of 7.2 ± 0.5 µM. In addition, in data set [2] (Homo sapiens, HeLa), the IC50 is 33 ± 1.4 µM.
As for `CCCCN(C(=O)C(F)(F)F)C1(C(=O)NC2CCCCC2)C(=O)Nc2ccc(I)cc21` (stereo not drawn) [Compound 18, 3-(N-butyl-2,2,2-trifluoroacetamido)-N-cyclohexyl-5-iodo-2-oxoindoline-3-carboxamide], the melting point is 218 to 220 °C. The IC50 in data set [1] (Mus musculus) was 8.5 ± 0.7 µM. Further, the IC50 in data set [2] (Homo sapiens, HeLa) amounted to 6.8 ± 0.5 µM.
`CCCCN(C(=O)C(F)(F)F)C1(C(=O)NC(C)(C)C)C(=O)Nc2ccc(Br)cc21` (stereo not drawn) [Compound 19, 5-bromo-N-(tert-butyl)-3-(N-butyl-2,2,2-trifluoroacetamido)-2-oxoindoline-3-carboxamide]: the melting point fell in the range of 198 to 200 °C. In addition, the IC50 in data set [1] (Mus musculus) is 7.8 ± 0.4 µM. In addition, the half-inhibitory concentration (IC50) in data set [2] (Homo sapiens, HeLa) is 16.8 ± 1.7 µM.
In turn, `CCCCN(C(=O)C(F)(F)F)C1(C(=O)NC(C)(C)C)C(=O)Nc2ccc([N+](=O)[O-])cc21` (stereo not drawn) [Compound 20, N-(tert-butyl)-3-(N-butyl-2,2,2-trifluoroacetamido)-5-nitro-2-oxoindoline-3-carboxamide] displayed a melting point of 178 to 180 °C. In data set [1] (Mus musculus), the concentration for half-maximal inhibition (IC50) is 25 ± 1.9 µM. Also, inhibition in data set [2] (Homo sapiens, HeLa) was half-maximal at 26 ± 1.9 µM (IC50).
For `CCCCN(C(=O)C(F)(F)F)C1(C(=O)NC2CCCCC2)C(=O)Nc2ccc([N+](=O)[O-])cc21` (stereo not drawn) [Compound 21, 3-(N-butyl-2,2,2-trifluoroacetamido)-N-cyclohexyl-5-nitro-2-oxoindoline-3-carboxamide] the same measures were 200 to 202 °C, 17 ± 0.7 µM and 12.4 ± 0.7 µM.
For the compound `CCCCN(C(=O)CCl)C1(C(=O)NC2CCCCC2)C(=O)Nc2ccc(Br)cc21` (stereo not drawn) [Compound 22, 5-bromo-3-(N-butyl-2-chloroacetamido)-N-cyclohexyl-2-oxoindoline-3-carboxamide], the melting point was 190.2 to 190.4 °C. The IC50 in data set [1] (Mus musculus) stood at 0.12 ± 0.01 µM. In data set [2] (Homo sapiens, HeLa), this compound registered a half-maximal inhibitory concentration (IC50) of 27 ± 0.8 µM.
Regarding `O=C1C(=O)N(Cc2cn(Cc3ccccc3)nn2)c2ccccc21` [Compound 25], the melting point was 175 to 177 °C. In data set [1] (Mus musculus), this compound had a 50% inhibitory concentration (IC50) of 100 ± 3.1 µM. Also, in data set [2] (Homo sapiens, HeLa), half-maximal inhibition (IC50) required 13.9 ± 4.5 µM.
Regarding `O=C1C(=O)N(Cc2cn(Cc3ccccc3)nn2)c2ccc(I)cc21` [Compound 26], the IC50 came out at 21.5 ± 2 µM in data set [1] (Mus musculus) and 2.5 ± 0.4 µM in data set [2] (Homo sapiens, HeLa). The “specificity for tumoral cells” value in data set [2] was “high specificity for tumoral cells”.
In turn, `CCOC(=O)Cn1cc(CN2C(=O)C(=O)c3cc(I)ccc32)nn1` [Compound 27] registered a melting point of 158 to 159 °C. In addition, the half-maximal inhibitory concentration (IC50) in data set [1] (Mus musculus) worked out at 7.3 ± 0.7 µM. In data set [2] (Homo sapiens, HeLa), this compound registered an IC50 of 66.9 ± 8.9 µM.
Compound `COC(=O)/C=C/c1ccc2c(c1)C(=O)C(=O)N2CCC(=O)OC` [Compound 30, methyl (E)-3-(1-(3-methoxy-3-oxopropyl)-2,3-dioxoindolin-5-yl)acrylate] returned a melting point of 131 to 132 °C. In data set [1] (Mus musculus), this compound showed an IC50 of 42.1 ± 2.7 µM. Also, the “specificity for tumoral cells” value in data set [2] is recorded as “not showing fully specific toxic activity for cancerous cells”. In data set [2] (Homo sapiens, HeLa), this compound came in with a half-maximal inhibitory concentration (IC50) of 9.3 ± 0.8 µM.
Regarding `COC(=O)/C=C/c1ccc2c(c1)C(=O)C(=O)N2Cc1ccccc1` [Compound 31], the IC50 in data set [1] (Mus musculus) worked out at 3.5 ± 0.8 µM; in data set [2], 8.8 ± 1.1 µM; in data set [2] (Homo sapiens, HeLa) it was 6.8 µM. In data set [2], the “specificity for tumoral cells” value was “not showing fully specific toxic activity for cancerous cells”.
`COC(=O)/C=C/c1ccc2c(c1)C(=O)C(=O)N2Cc1ccc(I)cc1` [Compound 32, methyl (E)-3-(1-(4-iodobenzyl)-2,3-dioxoindolin-5-yl)acrylate] had a melting point of 228 to 230 °C. For the same compound, the IC50 in data set [1] (Mus musculus) is 32.1 ± 3.4 µM. Also, it took 10.8 ± 0.9 µM to reach half-maximal inhibition in data set [2] (Homo sapiens, HeLa) (IC50).
With `COC(=O)/C=C/c1ccc(CN2C(=O)C(=O)c3cc(/C=C/C(=O)OC)ccc32)cc1` [Compound 33, methyl (E)-3-(4-((5-((E)-3-methoxy-3-oxoprop-1-en-1-yl)-2,3-dioxoindolin-1-yl)methyl)phenyl)acrylate], the melting point fell in the range of 188 to 190 °C. The compound also registered an IC50 in data set [1] (Mus musculus) of 12.6 ± 0.9 µM. In data set [2], the “specificity for tumoral cells” value was “high specificity for tumoral cells”. Further, the IC50 in data set [2] (Homo sapiens, HeLa) is 1 ± 0.05 µM.
Turning to `N.N.O=C([O-])C1(C(=O)[O-])CCC1.[Pt+2]` [carboplatin], the 50% inhibitory concentration (IC50) with cervical tumors (setting [3]) is 1000 µM.
Turning to `N.N.[Cl][Pt][Cl]` [cisplatin], in the data set on cervical tumors (setting [3]), the IC50 was 15 µM.
Regarding `CC(=O)O[C@H]1C(=O)[C@@]2(C)[C@H]([C@H](OC(=O)c3ccccc3)[C@]3(O)C[C@H](OC(=O)[C@H](O)[C@@H](NC(=O)c4ccccc4)c4ccccc4)C(C)=C1C3(C)C)[C@]1(OC(C)=O)CO[C@@H]1C[C@@H]2O` [paclitaxel], the IC50 in the data set with cervical tumors (setting [4]) is 21 µM.
For the compound `CC[C@@]1(O)C(=O)OCc2c1cc1n(c2=O)Cc2cc3c(CN(C)C)c(O)ccc3nc2-1` [topotecan], the IC50 in the data set on cervical tumors (setting [4]) is 26 µM.
Regarding “N-(tert-butyl)-3-(N-butyl-2-chloroacetamido)-1-methyl-2-oxoindoline-3-carboxamide [Compound 11]”, the IC50 was 7.3 ± 0.7 µM in data set [1] and 40.1 ± 1.5 µM in data set [2].
